Where “and” joins values, the source holds several entries; their conditions need not be identical. Equal values may be shown once. Read-outs that look alike come from different tables or passages of the source.
Columns and labels:
[1] = tested on: human ES motor neurons carrying the ALS-causing SOD1^A4V mutation; assay: cells; format: cell-based; conditions: Homo sapiens, Neuron, 72 h, CPA 33 μM, 72 h
Procedure: Next, survival assays were performed with all the analogs at once to generate a low-variability dataset. All compounds were evaluated at concentrations ranging from 0.1-3.0 μM (five-point dilution) in three technical replicates and two biological replicates.

[2] = Plasma and brain concentration 30 min after IP injection; format: in vivo, mouse; conditions: male, C57BL6/J, mouse, mice, ip dosing, 30 minutes; for Kp at 30 min: brain/plasma, read-out: B/P
Procedure: All studies were performed on 6-week old male C57BL6/J mice that were housed in the Columbia University Medical Center facility in a 12h light/dark cycle with access to food and water ad libitum. All animal procedures were approved by the Columbia University IACUC. […] Animals were weighed and injected once intraperitoneally (IP) at the indicated dose (10 or 20 mg/kg). After 30 min, animals were deeply anesthetized with 2.5% Avertin. Whole blood was collected by cardiac puncture in tubes containing 0.5M EDTA as an anticoagulant, and centrifuged for 10 min at 845 rcf at 4° to isolate plasma. Following cardiac puncture, animals were decapitated and brains were dissected and weighed. Brain samples were homogenized with a glass dounce homogenizer in 5 volumes of ddH2O. Brain and plasma samples were snap frozen in liquid nitrogen and stored at −80° C. before further processing.
The plasma samples were transferred to Eppendorf tubes (50 μL per sample) and diluted with acetonitrile (200 μL). The samples were sonicated for 1 minute followed by centrifugation at 16,000 rpm for 10 minutes. The supernatant was transferred to another Eppendorf tube and the solvent evaporated overnight. The samples were reconstituted in a mixture of 40 μL acetonitrile and 10 μL water transferred to a sample vial with insert, and analyzed by LC-MS.
The homogenized brain samples (250 μL) were transferred to Eppendorf tubes and diluted with acetonitrile (750 μL). The samples were sonicated for 1 minute followed by centrifugation at 16,000 rpm for 10 minutes. The supernatant (900 μL) was transferred to another Eppendorf tube and the solvent evaporated overnight. The samples were reconstituted in a mixture of 80 μL acetonitrile and 20 μL water, transferred to a sample vial with insert, and analyzed by LC-MS.
LC-MS analysis was performed on a platform comprising a Thermo Scientific Dionex Ultimate 3000 and a Bruker amaZon SL equipped with an electrospray ionization source controlled by Bruker Hystar 3.2. The compound concentration in each plasma sample was determined using a calibration curve. Chromatographic separation was performed by injecting 10 μL of the sample onto an Agilent Eclipse Plus C18 column (2.1×50 mm, 3.5 μm) maintained at 20° C. The flow rate was maintained at 400 μL/min. The initial flow conditions were 60% solvent A (water containing 0.1% acetic acid) and 40% solvent B (methanol containing 0.1% acetic acid). Solvent B was raised to 60% over 0.25 minutes and to 70% by 6.75 minutes.

phospho-cjun = assay: Phospho-cjun in olfactory bulbs after treatment in vivo (western blot); parameters: species or system mouse; conditions: 10 mg/kg oral gavage
Procedure: Compounds at 10 mg/kg were delivered intraperitoneally (IP), orally, or sub-cutaneously (SC). Animals were sacrificed 1 h after treatment. Their olfactory bulbs were dissected and lysed for western blot analysis. Phospho-cjun expression was normalized to the housekeeping protein GAPDH.
We therefore selected phospho-cjun as a marker of target engagement for further in vivo studies. C-jun is highly expressed throughout the murine central nervous system, especially in the olfactory bulbs. […] Animals were then sacrificed after 1 h, and their olfactory bulbs were sub-dissected and lysed for further western blot analysis. Samples were probed with an antibody specific to phosphorylated c-jun (at serine 63; cell signaling) and normalized to the housekeeping gene GAPDH.

[3] = tested on: human stem cell-derived motor neurons derived from a healthy patient
NUAK1 = NUAK1 (Homo sapiens, UniProt O60285); conditions: cited from earlier work
NUAK1, sequence (O60285 whole entry, species assumed): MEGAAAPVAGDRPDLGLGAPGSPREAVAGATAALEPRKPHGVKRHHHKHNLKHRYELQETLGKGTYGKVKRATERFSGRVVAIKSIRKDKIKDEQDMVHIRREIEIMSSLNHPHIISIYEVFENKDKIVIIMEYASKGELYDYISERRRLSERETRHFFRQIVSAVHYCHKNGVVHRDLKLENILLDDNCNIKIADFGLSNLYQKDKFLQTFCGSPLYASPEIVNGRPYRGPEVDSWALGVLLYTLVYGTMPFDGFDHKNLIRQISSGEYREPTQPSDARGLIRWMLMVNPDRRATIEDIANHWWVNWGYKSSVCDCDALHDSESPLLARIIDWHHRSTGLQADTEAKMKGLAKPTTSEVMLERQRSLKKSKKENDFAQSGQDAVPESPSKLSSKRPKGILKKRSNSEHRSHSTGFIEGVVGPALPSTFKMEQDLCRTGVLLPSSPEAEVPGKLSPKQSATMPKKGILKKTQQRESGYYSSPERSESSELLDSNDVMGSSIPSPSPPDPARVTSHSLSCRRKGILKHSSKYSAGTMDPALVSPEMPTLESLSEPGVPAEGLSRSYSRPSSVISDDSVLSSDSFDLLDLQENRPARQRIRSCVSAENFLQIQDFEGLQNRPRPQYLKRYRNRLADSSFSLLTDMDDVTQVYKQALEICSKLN

[4] = tested on: human stem cell-derived motor neurons derived from a healthy patient; assay: CPA survival assay, wild-type human stem cell-derived motor neurons; conditions: 8-point dilution series
human ES motor neurons = assay: Rescue of CPA toxicity by kinase inhibitors in dilution series (FIG. 3); conditions: dilution series, FIG. 3
[5] = tested on: HB9::GFP-SOD1^+/+ human motor neurons; assay: Rescue of CPA toxicity in human ESC-derived motor neurons, SOD1^+/+; format: cell-based; conditions: WT motor neurons, 33 μM CPA
From the text: (§1) One advantage of the stem cell-derived motor neuron survival assay is that it can be easily extended to human motor neurons. To adapt the assay to human cells, we generated a new isogenic pair of ESC lines derived from a human ESC line expressing GFP under the control of the Hb9 motor neuron promoter (HUES3 HB9::GFP, (Di Giorgio et al. 2008)). […] . The pair of cell lines was differentiated into motor neurons in parallel using previously published protocols (Amoroso et al. 2013; […] .
(§2) Differentiation of human isogenic HUES3 ESC HB9::GFP reporter lines into motor neurons was performed as previously described (Maury et al. 2015). Cells were dissociated on day 16 of differentiation, FACS-sorted and plated on poly-ornithine- and laminin-coated surfaces as above. Serum-free human motor neuron plating media was supplemented with the antimitotic UFdU and the neurotrophic factors GDNF, BDNF, CNTF, and IGF1 (all at 10 ng/mL) as described (Johnson-Kerner et al. 2015).

[6] = tested on: HB9::GFP-SOD1^+/A4V human motor neurons; assay: Rescue of CPA toxicity in human ESC-derived motor neurons, SOD1^+/A4V; format: cell-based; conditions: SOD1^A4V motor neurons, 33 μM CPA
From the text: as §1, §2

[7] = Solubility of kenpaullone (observation); format: physicochemical
MLK3 = MLK3 (Homo sapiens, UniProt Q16584); conditions: 0.5 μM; Anastassiadis et al. 2011; cited from earlier work
MLK3, sequence (Q16584 whole entry, species assumed): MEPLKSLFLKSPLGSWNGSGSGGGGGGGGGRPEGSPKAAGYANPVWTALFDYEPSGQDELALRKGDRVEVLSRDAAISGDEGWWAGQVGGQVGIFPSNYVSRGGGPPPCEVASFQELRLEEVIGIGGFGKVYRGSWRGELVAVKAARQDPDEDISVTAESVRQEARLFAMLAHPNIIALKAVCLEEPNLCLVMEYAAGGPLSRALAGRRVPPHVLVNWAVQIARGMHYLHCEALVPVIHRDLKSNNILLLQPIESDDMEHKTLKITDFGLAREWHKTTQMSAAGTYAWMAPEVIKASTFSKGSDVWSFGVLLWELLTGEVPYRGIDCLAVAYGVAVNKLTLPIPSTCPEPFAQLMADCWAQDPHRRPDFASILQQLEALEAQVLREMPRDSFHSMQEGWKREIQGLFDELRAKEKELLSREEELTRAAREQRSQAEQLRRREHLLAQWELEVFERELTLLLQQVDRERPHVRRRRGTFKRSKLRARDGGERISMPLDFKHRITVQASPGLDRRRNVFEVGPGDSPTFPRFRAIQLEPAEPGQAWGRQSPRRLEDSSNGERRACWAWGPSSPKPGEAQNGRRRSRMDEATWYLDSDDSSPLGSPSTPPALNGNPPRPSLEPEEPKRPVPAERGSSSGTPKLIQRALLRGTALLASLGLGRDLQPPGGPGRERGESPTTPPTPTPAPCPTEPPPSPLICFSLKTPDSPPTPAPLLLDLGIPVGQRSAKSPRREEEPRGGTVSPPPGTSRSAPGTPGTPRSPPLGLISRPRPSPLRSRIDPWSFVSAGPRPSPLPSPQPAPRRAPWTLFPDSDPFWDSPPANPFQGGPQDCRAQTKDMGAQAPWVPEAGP

hSOD1^G93A mice = assay: TUDCA on neuromuscular junction denervation of tibialis anterior; format: in vivo, mouse; conditions: 0.5 mg/g subcutaneously every three days, P30 to P50
From the text: To test the ability of TUDCA to preserve motor axons in ALS models in vivo, we designed a small-scale study in which we evaluated the denervation of the fast fatigable hind limb muscle tibialis anterior (TA) (FIG. 20D). […]. During this period, the TA muscles display 25-40% denervation before becoming substantially atrophied at later time points. […]. At the end of the experiment, we counted total NMJs by staining for acetylcholine receptors on the TA muscle with Alexa Fluor 488-conjugated α-bungarotoxin, and assessed their innervation by staining for motor axons with antibodies against vesicular acetylcholine […] (VAChT) (FIG. 20F). […].
(2) hSOD1^WT mice receiving 0.5 mg/g TUDCA in 0.01 M PBS subcutaneously to evaluate the mutation-specific effects of NMJ denervation and of the drug; […]. […] Because a lack of co-localization indicated muscle denervation, % NMJ innervation was determined by dividing the total number of areas of overlap between VAChT and BTX signals (total number innervated endplates) by the number of areas containing BTX signal (total number of endplates). One TA was assessed for each animal (n=4-6), with every third section throughout the whole muscle stained and counted such that a minimum of 1000 NMJs were evaluated per animal. Images were acquired using a Nikon Eclipse TE-2000-E fluorescence microscope with a 4× or 10× objective. […]

OCCN1CCN(Cc2ccc(-c3cnc4[nH]cc(-c5cccc(F)c5)c4c3)cc2)CC1 [Compound 12h, 2-(4-(4-(3-(3-Fluorophenyl)-1H-pyrrolo[2,3-b]pyridin-5-yl)benzyl)piperazin-1-yl)ethan-1-ol]
EC50 ([1]; read-out: EC50): 100 nM | Emax ([1]; read-out: Emax (MN survival % untreated)): 117% | Kp at 30 min ([2]; 10 mg/kg): 2 | Kp at 30 min ([2]; 20 mg/kg): 3.3 | concentration at 30 min ([2]; 10 mg/kg, read-out: brain): < 500 ng/g and < 1.2 µM | concentration at 30 min ([2]; 10 mg/kg, read-out: plasma): < 250 ng/mL and < 580 nM | concentration at 30 min ([2]; 20 mg/kg, read-out: brain): 1670 ng/g and 3.88 µM | concentration at 30 min ([2]; 20 mg/kg, read-out: plasma): 505 ng/mL and 1.17 µM | oral bioavailability (from reduction of cjun phosphorylation after oral gavage) (phospho-cjun): orally bioavailable

Cc1nc(Nc2cnn(C3CCNCC3)c2)nc2c1N(C)C(=O)c1cc3ccccc3cc1N2C [HTH 01-015]
concentration above which toxic to motor neurons in the absence of CPA [3]: above 2 μM | IC50 (NUAK1): 100 nM | rescue of CPA toxicity [4]: unable to rescue CPA toxicity | rescue of CPA toxicity (human ES motor neurons): failed to rescue CPA toxicity

O=C1Cc2c([nH]c3ccc(Br)cc23)-c2ccccc2N1 [Kenpaullone]
rescue of CPA-induced cell death [5]: 42% | rescue of CPA-induced cell death [6]: 31% | solubility at the concentrations effective in in vitro CPA assays [7]: insoluble | MLK3 activity remaining (MLK3): 49.3%

C[C@H](CCC(=O)NCCS(=O)(=O)O)[C@H]1CC[C@H]2[C@@H]3[C@@H](O)C[C@@H]4C[C@H](O)CC[C@]4(C)[C@H]3CC[C@]12C [TUDCA, tauroursodeoxycholic acid]
rescue of CPA-induced cell death [5]: 34% | rescue of CPA-induced cell death [6]: 9% | NMJ innervation vs untreated animals (hSOD1^G93A mice): moderate, but statistically significant increase in NMJ innervation
